In brackets after ≈: the same amount, converted by molar mass. Where two headings read alike, the source gives them in different places.
Columns and labels:
[1] = system: intracellular M. tuberculosis H37Rv; test: microbe, parasite or virus in culture; format: cell-based
[2] = system: intracellular M. tuberculosis Kurono; test: microbe, parasite or virus in culture; format: cell-based
[3] = system: M. tuberculosis ATCC 27294 (H37Rv); test: MIC by agar proportion method, standard strain; format: cell-based; conditions: Mycobacterium tuberculosis
[4] = system: M. tuberculosis ATCC 35812 (Kurono); test: MIC by agar proportion method, standard strain; format: cell-based; conditions: Mycobacterium tuberculosis, ATCC35812
[5] = system: M. tuberculosis ATCC 35838 (H37Rv RIF-R); test: MIC by agar proportion method, standard strain; format: cell-based; conditions: Mycobacterium tuberculosis
[6] = system: M. tuberculosis ATCC 35822 (H37Rv INH-R); test: MIC by agar proportion method, standard strain; format: cell-based; conditions: Mycobacterium tuberculosis
[7] = system: M. tuberculosis ATCC 35837 (H37Rv EMB-R); test: MIC by agar proportion method, standard strain; format: cell-based; conditions: Mycobacterium tuberculosis
[8] = system: M. tuberculosis ATCC 35820 (H37Rv SM-R); test: MIC by agar proportion method, standard strain; format: cell-based; conditions: Mycobacterium tuberculosis
[9] = system: M. tuberculosis ATCC 35828 (H37Rv PZA-R); test: MIC by agar proportion method, standard strain; format: cell-based; conditions: Mycobacterium tuberculosis
[10] = system: M. africanum ATCC 25420; test: MIC by agar proportion method, standard strain; format: cell-based; conditions: ATCC25420
[11] = system: M. bovis ATCC BAA-935; test: microbe, parasite or virus in culture; format: cell-based; conditions: Mycobacterium tuberculosis variant bovis, ATCCBAA935
[12] = system: M. caprae ATCC BAA-824; test: MIC by agar proportion method, standard strain; format: cell-based; conditions: ATCCBAA824
[13] = system: M. microti ATCC 11152; test: MIC by agar proportion method, standard strain; format: cell-based; conditions: ATCC11152
[14] = system: M. pinnipedii ATCC BAA-688; test: MIC by agar proportion method, standard strain; format: cell-based; conditions: ATCCBAA688
[15] = system: M. tuberculosis Kurono; format: in vivo; conditions: in vivo
[16] = target: recombinant M. bovis BCG-derived DprE1 (Mycobacterium tuberculosis, UniProt P9WJF1); test: biochemical
recombinant M. bovis BCG-derived DprE1, sequence (P9WJF1 whole entry): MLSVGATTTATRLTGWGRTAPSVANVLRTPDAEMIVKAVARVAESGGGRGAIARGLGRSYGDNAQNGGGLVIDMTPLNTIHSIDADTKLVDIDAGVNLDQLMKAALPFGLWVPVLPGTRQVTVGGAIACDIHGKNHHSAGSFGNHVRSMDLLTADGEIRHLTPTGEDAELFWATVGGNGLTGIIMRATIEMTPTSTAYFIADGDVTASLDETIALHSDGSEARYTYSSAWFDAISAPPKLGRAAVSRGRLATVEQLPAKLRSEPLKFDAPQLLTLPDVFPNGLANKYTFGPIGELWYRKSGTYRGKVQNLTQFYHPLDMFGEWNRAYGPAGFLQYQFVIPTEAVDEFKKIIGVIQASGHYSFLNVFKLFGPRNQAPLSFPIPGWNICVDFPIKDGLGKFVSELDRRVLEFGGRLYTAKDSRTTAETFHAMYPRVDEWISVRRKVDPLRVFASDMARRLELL

[17] = ATCC 27294 (H37Rv), agar proportion method, […], read-out: MIC
[18] = ATCC 35812 (Kurono), agar proportion method, read-out: MIC
[19] = […], agar proportion method, read-out: MIC
[20] = M. africanum ATCC 25420, agar proportion method, read-out: MIC
[21] = M. caprae ATCC BAA-824, agar proportion method, read-out: MIC
[22] = M. microti ATCC 11152, agar proportion method, read-out: MIC
[23] = M. pinnipedii ATCC BAA-688, agar proportion method, read-out: MIC

SMILES	MIC [3, 17] [µg/mL]	MIC [4, 18] [µg/mL]	MIC [5, 19] [µg/mL]	MIC [6, 19] [µg/mL]	MIC [7, 19] [µg/mL]	MIC [8, 19] [µg/mL]	MIC [9, 19] [µg/mL]	MIC [10, 20] [µg/mL]	MIC [11] [µg/mL]	MIC [12, 21] [µg/mL]	MIC [13, 22] [µg/mL]	MIC [14, 23] [µg/mL]	lung CFU compared to the vehicle group, single agent [15]	further results
[H]/N=C(/N)N[C@H]1[C@H](O)[C@@H](O)[C@H](O[C@@H]2O[C@@H](C)[C@](O)(C=O)[C@H]2O[C@@H]2O[C@@H](CO)[C@H](O)[C@@H](O)[C@@H]2NC)[C@@H](N/C(N)=N\[H])[C@@H]1O [STR, streptomycin]														bactericidal activity against intracellular bacilli ([1]; H37Rv in THP-1-derived macrophage-like cells, 3 days): no bactericidal activity; bactericidal activity against intracellular bacilli ([2]; Kurono in THP-1-derived macrophage-like cells, 3 days): no bactericidal activity
C[C@]1(COc2ccc(N3CCC(Oc4ccc(OC(F)(F)F)cc4)CC3)cc2)Cn2cc([N+](=O)[O-])nc2O1 [DMD, delamanid]	0.004 (≈ 0.00748 µM)	0.004 (≈ 0.00748 µM)	0.004 (≈ 0.00748 µM)	0.004 (≈ 0.00748 µM)	0.004 (≈ 0.00748 µM)	0.004 (≈ 0.00748 µM)	0.004 (≈ 0.00748 µM)	0.001 (≈ 0.00187 µM)	0.004 (≈ 0.00748 µM)	0.002 (≈ 0.00374 µM)	0.002 (≈ 0.00374 µM)	0.002 (≈ 0.00374 µM)	significant decrease of lung CFU	
COc1nc2ccc(Br)cc2cc1[C@@H](c1ccccc1)[C@@](O)(CCN(C)C)c1cccc2ccccc12 [BDQ, bedaquiline]	0.063 (≈ 0.113 µM)	0.063 (≈ 0.113 µM)	0.063 (≈ 0.113 µM)	0.063 (≈ 0.113 µM)	0.063 (≈ 0.113 µM)	0.063 (≈ 0.113 µM)	0.13 (≈ 0.234 µM)	0.25 (≈ 0.45 µM)	0.13 (≈ 0.234 µM)	0.13 (≈ 0.234 µM)	0.063 (≈ 0.113 µM)	0.13 (≈ 0.234 µM)	significant decrease of lung CFU	
CC(=O)NC[C@H]1CN(c2ccc(N3CCOCC3)c(F)c2)C(=O)O1 [LZD, linezolid]									0.5 (≈ 1.48 µM)					MIC [3]: 1 µg/mL (≈ 2.96 µM); MIC [4]: 1 µg/mL (≈ 2.96 µM); MIC [5]: 0.5 µg/mL (≈ 1.48 µM); MIC [6]: 1 µg/mL (≈ 2.96 µM); MIC [7]: 0.5 µg/mL (≈ 1.48 µM); MIC [8]: 0.5 µg/mL (≈ 1.48 µM); MIC [9]: 1 µg/mL (≈ 2.96 µM); MIC [10]: 0.5 µg/mL (≈ 1.48 µM); MIC [12]: 0.25 µg/mL (≈ 0.741 µM); MIC [13]: 0.5 µg/mL (≈ 1.48 µM); MIC [14]: 1 µg/mL (≈ 2.96 µM)
C[C@H]1COC2(CCN(c3nc(=O)c4cc(C(F)(F)F)cc([N+](=O)[O-])c4s3)CC2)O1 [BTZ043]														IC50 [16]: 403 nM
COc1c(N2C[C@@H]3CCCN[C@@H]3C2)c(F)cc2c(=O)c(C(=O)O)cn(C3CC3)c12 [MXF, moxifloxacin]	0.5 (≈ 1.25 µM)	0.13 (≈ 0.324 µM)	0.25 (≈ 0.623 µM)	0.25 (≈ 0.623 µM)	0.25 (≈ 0.623 µM)	0.5 (≈ 1.25 µM)	0.5 (≈ 1.25 µM)	0.25 (≈ 0.623 µM)	0.13 (≈ 0.324 µM)	0.063 (≈ 0.157 µM)	0.063 (≈ 0.157 µM)	0.25 (≈ 0.623 µM)		
NNC(=O)c1ccncc1 [INH, isoniazid]														IC50 [16]: > 10000 nM
CO[C@H]1/C=C/O[C@@]2(C)Oc3c(C)c(O)c4c(O)c(c(/C=N/N5CCN(C)CC5)c(O)c4c3C2=O)NC(=O)/C(C)=C\C=C\[C@H](C)[C@H](O)[C@@H](C)[C@@H](O)[C@@H](C)[C@H](OC(C)=O)[C@@H]1C [RIF, rifampin]									0.063 (≈ 0.0766 µM)					MIC [3]: 0.25 µg/mL (≈ 0.304 µM); MIC [4]: 0.25 µg/mL (≈ 0.304 µM); MIC [5]: > 16 µg/mL; MIC [6]: 0.5 µg/mL (≈ 0.608 µM); MIC [7]: 0.25 µg/mL (≈ 0.304 µM); MIC [8]: 0.25 µg/mL (≈ 0.304 µM); MIC [9]: 1 µg/mL (≈ 1.22 µM); MIC [10]: 0.25 µg/mL (≈ 0.304 µM); MIC [12]: 0.13 µg/mL (≈ 0.158 µM); MIC [13]: 0.13 µg/mL (≈ 0.158 µM); MIC [14]: 0.5 µg/mL (≈ 0.608 µM); bactericidal activity against intracellular bacilli [1]: killed the intracellular bacilli; IC90 ([1]; Mycobacterium tuberculosis, H37RV, THP-1, read-out: 90% inhibitory concentration (IC90)): 1.15 µg/mL (≈ 1.4 µM); bactericidal activity against intracellular bacilli [2]: killed the intracellular bacilli; IC90 ([2]; Mycobacterium tuberculosis, THP-1, read-out: 90% inhibitory concentration (IC90)): 0.565 µg/mL (≈ 0.686 µM)
C[C@H]1COc2c(N3CCN(C)CC3)c(F)cc3c(=O)c(C(=O)O)cn1c23 [LVX, levofloxacin]	0.5 (≈ 1.38 µM)	0.5 (≈ 1.38 µM)	0.5 (≈ 1.38 µM)	0.5 (≈ 1.38 µM)	0.5 (≈ 1.38 µM)	0.5 (≈ 1.38 µM)	0.5 (≈ 1.38 µM)	0.25 (≈ 0.692 µM)	0.25 (≈ 0.692 µM)	0.25 (≈ 0.692 µM)	0.25 (≈ 0.692 µM)	0.25 (≈ 0.692 µM)	significant decrease of lung CFU	

From publication PMC7269503 (Antimicrobial Agents and Chemotherapy, 2020)
